Bounds are passed on as bounds.

Sequence of streptavidin (P22629 25-183): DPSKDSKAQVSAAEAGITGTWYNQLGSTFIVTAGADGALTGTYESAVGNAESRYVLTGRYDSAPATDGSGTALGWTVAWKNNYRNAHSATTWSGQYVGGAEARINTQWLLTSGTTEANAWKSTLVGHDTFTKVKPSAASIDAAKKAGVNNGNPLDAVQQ

The target of one test is T1, placental alkaline phosphatase (PLAP) (Homo sapiens, UniProt P05187).
T1 construct: AviTag (biotinylated in vitro by BirA); 6xHis-tag; made in house; host or cells: Chinese hamster ovary (CHO) cells
T1 sequence (P05187 23-506 limits assumed): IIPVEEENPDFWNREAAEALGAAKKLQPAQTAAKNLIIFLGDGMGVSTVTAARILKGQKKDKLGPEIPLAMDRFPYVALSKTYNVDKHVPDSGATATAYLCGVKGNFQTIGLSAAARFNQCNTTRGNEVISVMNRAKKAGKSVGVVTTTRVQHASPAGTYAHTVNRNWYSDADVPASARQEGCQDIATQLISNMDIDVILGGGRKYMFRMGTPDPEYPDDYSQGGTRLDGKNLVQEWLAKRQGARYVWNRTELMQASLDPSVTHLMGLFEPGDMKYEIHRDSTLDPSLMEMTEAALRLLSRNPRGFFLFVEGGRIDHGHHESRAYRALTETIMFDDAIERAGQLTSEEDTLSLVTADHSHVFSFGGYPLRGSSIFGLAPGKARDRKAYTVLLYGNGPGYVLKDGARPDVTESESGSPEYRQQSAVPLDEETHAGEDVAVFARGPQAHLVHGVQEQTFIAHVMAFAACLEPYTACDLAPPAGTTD
Kind of test: PLAP inhibition assay (pNPP substrate). It is filed as biochemical. The following applies: off-DNA; pH 10 (activation buffer pH 9.8); read-out: IC50 (determined fit). As to the method:
For the PLAP inhibition assay, 500 µM of inhibitor was used for a 16-point serial dilution in 10% DMSO/activation buffer in PCR tubes. Separately, a 12.5 nM solution of PLAP and a 4.5 mM solution of p-nitrophenylphosphate (pNPP) were prepared in activation buffer (see below). 8 µL of each inhibitor dilution was mixed with 16 µL of enzyme solution and 16 µL of pNPP solution and gently mixed. The assay was allowed to develop in the dark for 30 min (activation buffer pH10: 150 mM diethanolamine, 1 mM MgCl2, 60 mM ZnCl2 in water, pH 9.8) or 1 hour (activation buffer pH9: 150 mM Tris, 1 mM MgCl2, 60 mM ZnCl2 in water, pH 9.0). 50 µL of 2 M NaOH was then added to quench the reaction. Readout was performed to detect 405 nm vs 620 nm absorption. Data was fitted using Prism 10. Raw data from PLAP measurements can be found in Supplementary Information, section 7.2.2.
Human alpha-thrombin was obtained from Prolytix (Haematologic Technologies) - BioConnect Website and used in FP and inhibition assays. Biotinylated thrombin used for selections was obtained from Sigma Aldrich.
The recombinant human placental alkaline phosphatase (hPLAP) labelled with AviTag™ and 6xHis-tag was produced in Chinese hamster ovary (CHO) cells and was purified by Ni-NTA affinity chromatography and size-exclusion chromatography. The in-vitro biotinylation of the protein is mediated by BirA protein system. “Early-fraction” is the final material used for fluorescence polarization and inhibition experiments.
Figure S32: Quality characterization of recombinant hPLAP. A. The size exclusion chromatogram of purifying recombinant hPLAP expressed in CHO cells after Ni-NTA affinity chromatography purification and biotinylation. […] The absorbances at 450nm were measured with/without the presence of hPLAP and/or human PLAP antibody. […]
Protocol was adapted from Habeshian et al. 12. […] Fluorescence (excitation at 360 nm, emission at 465 nm) was measured every 3 min for 30 min. […] Data was measured in triplicate. […]
and gently mixed. […] Readout was performed to detect 405 nm vs 620 nm absorption. […]
`NC(=O)CSC[C@H](NC(=O)C[C@H](Cc1ccccc1Cl)NC(=O)[C@@H](N)Cc1ccccc1Cl)C(=O)NCCCCCC(=O)N[C@@H](CCCCNC(=S)Nc1ccc2c(c1)C(=O)OC21c2ccc(O)cc2Oc2cc(O)ccc21)C(N)=O` [Compound 21]: the half-inhibitory concentration (IC50) – broadly, the concentration that gives 50% inhibition – is 21 µM.

The test is the same for the next values; noted with them: off-DNA; pH not printed with the values, pH 9 implied by b30; mean of n=3; read-out: IC50.
For `NC(=O)CSC[C@H](NC(=O)C[C@H](Cc1ccccc1Cl)NC(=O)[C@@H](N)Cc1ccccc1Cl)C(=O)NCCCCCC(=O)N[C@@H](CCCCNC(=S)Nc1ccc2c(c1)C(=O)OC21c2ccc(O)cc2Oc2cc(O)ccc21)C(N)=O` [Compound 21], the IC50 was 2.5 µM.

Regarding `C#CCN1CCC[C@H]1C(=O)N[C@H](CC(=O)N[C@@H](CSC1CC(=O)N(CCN2C(=O)CC(SC[C@H](NC(=O)C[C@H](Cc3ccccc3Cl)NC(=O)[C@@H](N)Cc3ccccc3Cl)C(=O)NCCCCCC(=O)N[C@@H](CCCCNC(=S)Nc3ccc4c(c3)C(=O)OC43c4ccc(O)cc4Oc4cc(O)ccc43)C(N)=O)C2=O)C1=O)C(N)=O)Cc1ccccc1Cl` (stereo partly shown) [Compound 22], the half-maximal inhibitory concentration (IC50) was 1.43 µM.

Another test addresses streptavidin (Streptomyces avidinii, UniProt P22629). Kind of test: biochemical.
Settings: not given
It is filed as binding. The method, then: LNA5 and LNA3 conjugates were hybridized by mixing 25 µL of LNA5 (2 µM) and 25 µL of LNA3 (2 µM) conjugates in water and heating to 70 °C for 5-10 min. After cooling down the solution to room temperature, 950 µL of 1x PBS was added to the LNA solution. The hybridized LNA conjugates were then tested via fluorescence polarization.
If the LNA conjugates were clicked together, they were diluted to 1 µM, 50 µL of a clicked conjugate was diluted with 950 µL 1x PBS and tested by fluorescence polarization.
Separately, a 16-point serial dilution of protein was performed in PBS in PCR tubes. 4 µL of the 50 nM conjugate was mixed with 4 µL of each protein dilution in black 384-well plates to a final volume of 8 µL. The plate was incubated for 30 min in the dark and centrifuged briefly to remove bubbles. Fluorescence anisotropy was measured at 535 nm. Data was fitted using Prism 10. Raw data from experimental FP measurements can be found in Supplementary Information, section 7.1.
7.1. Fluorescence Polarization
LNA5 and LNA3 conjugates were hybridized by mixing 25 µL of LNA5 (2 µM) and 25 µL of LNA3 (2 µM) conjugates in mQ and heating to 70 °C for 5-10 min. After cooling down the solution to room temperature, 950 µL of 1x PBS was added to the LNA solution. The hybridized LNA conjugates were then tested via fluorescence polarization experiment.
If the LNA conjugates were clicked together, they were diluted to 1 µM, 50 µL of a clicked conjugate could then be taken, diluted with 950 µL 1x PBS and tested via fluorescence […]
All other off-DNA fluoresceinated compounds were diluted to 50 nM in 1xPBS containing 5% […]
Separately, a 16-point serial dilution of protein was performed in PBS in PCR tubes. 4 µL of the 50 nM conjugate was mixed with 4 µL of each protein dilution in black 384-well plates to a final volume of 8 µL. The plate was incubated for 30 min in the dark and centrifuged briefly to remove bubbles. Fluorescence anisotropy was measured at 535 nm. Data was obtained and fitted using Prism 10.
On to `CC(C)C[C@H](C(=O)N1Cc2cc(C(=O)N[C@@H](CSCC(N)=O)C(=O)NCCCCCC(=O)N[C@@H](CCCCNC(=O)c3ccc4c(c3)C(=O)OC43c4ccc(O)cc4Oc4cc(O)ccc43)C(N)=O)sc2C1)n1cc(CN2CCC[C@H]2C(=O)N[C@H](CC2CCCCC2)C(=O)N[C@@H](CSCC(N)=O)C(N)=O)nn1` [Compound 7-L0], for which the dissociation constant (Kd) (as a rule, the concentration at which binding is half-saturated) is 0.173 µM.

In turn, `CC(C)C[C@@H]1C(=O)N2Cc3cc(sc3C2)C(=O)N[C@H](C(=O)NCCCCCC(=O)N[C@@H](CCCCNC(=O)c2ccc3c(c2)C(=O)OC32c3ccc(O)cc3Oc3cc(O)ccc32)C(N)=O)CSC/C=C\CSC[C@@H](C(N)=O)NC(=O)[C@@H](CC2CCCCC2)NC(=O)[C@@H]2CCCN2Cc2cn1nn2` [Compound 7-L5] had a Kd greater than 5 µM.

The molecule `CC(C)C[C@@H]1C(=O)N2Cc3cc(sc3C2)C(=O)N[C@H](C(=O)NCCCCCC(=O)N[C@@H](CCCCNC(=O)c2ccc3c(c2)C(=O)OC32c3ccc(O)cc3Oc3cc(O)ccc32)C(N)=O)CSCc2ccc(cc2)CSC[C@@H](C(N)=O)NC(=O)[C@@H](CC2CCCCC2)NC(=O)[C@@H]2CCCN2Cc2cn1nn2` [Compound 7-L2] gave a Kd greater than 5 µM.

`CC(C)C[C@@H]1C(=O)N2Cc3cc(sc3C2)C(=O)N[C@H](C(=O)NCCCCCC(=O)N[C@@H](CCCCNC(=O)c2ccc3c(c2)C(=O)OC32c3ccc(O)cc3Oc3cc(O)ccc32)C(N)=O)CSC/C=C/CSC[C@@H](C(N)=O)NC(=O)[C@@H](CC2CCCCC2)NC(=O)[C@@H]2CCCN2Cc2cn1nn2` [Compound 7-L4] returned a Kd greater than 5 µM.

Molecule `CC(C)C[C@@H]1C(=O)N2Cc3cc(sc3C2)C(=O)N[C@H](C(=O)NCCCCCC(=O)N[C@@H](CCCCNC(=O)c2ccc3c(c2)C(=O)OC32c3ccc(O)cc3Oc3cc(O)ccc32)C(N)=O)CSCc2cccc(c2)CSC[C@@H](C(N)=O)NC(=O)[C@@H](CC2CCCCC2)NC(=O)[C@@H]2CCCN2Cc2cn1nn2` [Compound 7-L3] yielded a Kd greater than 5 µM.

Take `NC(=O)CSC[C@H](NC(=O)[C@@H](CC1CCCCC1)NC(=O)[C@@H]1CCCN1Cc1cn([C@H](CC2CCC2)C(=O)N2Cc3cc(C(=O)N[C@@H](CSCC(N)=O)C(=O)NCCCCCC(=O)N[C@@H](CCCCNC(=O)c4ccc5c(c4)C(=O)OC54c5ccc(O)cc5Oc5cc(O)ccc54)C(N)=O)sc3C2)nn1)C(N)=O` [Compound 8-L0]: binding was put at a Kd of 0.118 µM.

Molecule `CC(C)C[C@@H]1C(=O)N2Cc3cc(sc3C2)C(=O)N[C@H](C(=O)NCCCCCC(=O)N[C@@H](CCCCNC(=O)c2ccc3c(c2)C(=O)OC32c3ccc(O)cc3Oc3cc(O)ccc32)C(N)=O)CSCCS(=O)(=O)CS(=O)(=O)CCSC[C@@H](C(N)=O)NC(=O)[C@@H](CC2CCCCC2)NC(=O)[C@@H]2CCCN2Cc2cn1nn2` [Compound 7-L1] registered a dissociation constant Kd greater than 5 µM.

For the origin of these results see PMC11972359, “Flexibility-tuning of dual-display DNA-encoded chemical libraries facilitates cyclic peptide ligand discovery” (Nature Communications, 2025).
